The subject of one test is ER-BC (Bcoa0725). To be noted: NADH, anaerobic.
A further test concerns the target T1, ER-MT (Neomoorella thermoacetica, UniProt O52935).
T1 sequence (O52935 1-667): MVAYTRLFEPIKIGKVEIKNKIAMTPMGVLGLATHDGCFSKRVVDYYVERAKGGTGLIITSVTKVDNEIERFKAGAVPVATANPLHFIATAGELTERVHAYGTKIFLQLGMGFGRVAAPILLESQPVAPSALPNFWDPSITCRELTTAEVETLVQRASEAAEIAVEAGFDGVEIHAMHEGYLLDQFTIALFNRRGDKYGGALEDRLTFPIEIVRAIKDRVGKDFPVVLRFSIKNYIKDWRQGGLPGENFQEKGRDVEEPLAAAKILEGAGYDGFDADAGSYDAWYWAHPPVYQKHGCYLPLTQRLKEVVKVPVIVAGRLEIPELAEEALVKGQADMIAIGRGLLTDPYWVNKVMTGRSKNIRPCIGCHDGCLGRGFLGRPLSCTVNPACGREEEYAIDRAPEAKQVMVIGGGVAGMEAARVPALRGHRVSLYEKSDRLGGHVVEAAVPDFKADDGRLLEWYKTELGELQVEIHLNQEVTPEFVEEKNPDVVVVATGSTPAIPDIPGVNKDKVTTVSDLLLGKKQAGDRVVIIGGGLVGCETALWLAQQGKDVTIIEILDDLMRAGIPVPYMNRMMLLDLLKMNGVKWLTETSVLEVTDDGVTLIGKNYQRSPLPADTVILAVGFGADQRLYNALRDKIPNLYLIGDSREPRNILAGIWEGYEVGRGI
Description: whole-cell biotransformation, LC-MS. Type of test: cell-based. To be noted: 0.7 mM substrate; E. coli expressing ER.

Read-outs that look alike come from different tables or passages of the source.

These results are taken from paper PMC5460604 (Chemical Science, 2016).

For `O=C(O)C=CCCC(=O)O` (mixture of isomers) [compound 5, 2-hexenedioic acid], in the test on ER-BC (Bcoa0725) (14% isopropanol, sigmoidal kinetics), the Km amounted to 18.9 mM. With `O=C(O)/C=C/c1ccccc1` [compound 4, trans-cinnamic acid], the Km in the test with ER-BC (Bcoa0725) (substrate inhibition) turned out to be 0.68 mM.

For `O=C(O)/C=C/C=C/C(=O)O` [trans,trans-muconic acid], the “whole-cell biotransformation, LC-MS” value at ER-MT is “the ER-BC, ER-CA and ER-MT strains hydrogenated both isomers to adipic acid”.
